The text below walks through data of patent US10654859B2, “Methanesulfonate polymorph of 5-type phosphodiesterase inhibitor and preparation method and applications thereof” (JINAN MEILUWEI BIOTECHNOLOGY CO., LTD., priority 2017, dated 2020).

The nature of this data set: Solubility test (Chinese Pharmacopoeia 2010 criteria). It counts as physicochemical. To be noted: 25° C.±2° C.; for solubility in 95% ethanol (pharmacopoeia term) / solubility in water (pharmacopoeia term): observed within 30 minutes. As to the method:
The regulations on solubility in the guide to the second volume of Chinese Pharmacopoeia 2010 edition are used as criteria.
Weigh samples ground to fine powder (sample B: the compound of formula A; sample C: the methanesulfonate polymorph of the compound of formula A prepared in Embodiment 1), put the samples into a certain volume of solvent at 25° C.±2° C., and vigorously shake the samples for 30 seconds every 5 minutes; observe the dissolution within 30 minutes, wherein if solute particles are not observed, the samples are completely dissolved.

As for `CCCc1nn(C)c2c(=S)[nH]c(-c3cc(C(=S)N4CCN(C)CC4)ccc3OCC)nc12` [sample B, 5-[2-ethoxy-5-(4-methylpiperazin-1-ylthiocarbonyl)phenyl]-1-methyl-3-n-propyl-1,6-dihydro-pyrazolo[4,3-d]pyrimidin-7-thione], the “amount of 95% ethanol in which 1 g of sample is dissolved” value was more than 10000 g, the “solubility in 95% ethanol (pharmacopoeia term)” value is on record as “almost insoluble”, the “amount of water in which 1 g of sample is dissolved” value is on record as more than 10000 g and the “solubility in water (pharmacopoeia term)” value was “hardly soluble”.
In the case of `CCCc1nn(C)c2c(=S)[nH]c(-c3cc(C(=S)N4CCN(C)CC4)ccc3OCC)nc12` [sample C, 5-[2-ethoxy-5-(4-methylpiperazin-1-ylthiocarbonyl)phenyl]-1-methyl 3-n-propyl-1,6-dihydro-pyrazolo[4,3-d]pyrimidin-7-thione methanesulfonate polymorph], the “amount of 95% ethanol in which 1 g of sample is dissolved” value is not above 90 g, the “solubility in 95% ethanol (pharmacopoeia term)” value was “slightly soluble”, the “amount of water in which 1 g of sample is dissolved” value is on record as not above 800 g and the “solubility in water (pharmacopoeia term)” value is given as “slightly soluble”.
